Data reported in US6368651B1, “Use of additives to modify the taste characteristics of N-neohexyl-α-aspartyl-L-phenylalanine methyl ester” (The NutraSweet Company, priority 1999, dated 2002).
Where a name gives a salt, the structure may show the parent alone. Where a SMILES comes first, the peptide text is derived from it.

How the values were obtained:
[1] = Taste evaluation in neotame-sweetened cola-flavored beverage; conditions: for taste characteristic imparted by neotame / taste compared to neotame-sweetened cola-flavored beverage / taste of beverage across tested concentrations: cola; for effectiveness as taste modifying ingredient: test cola-beverage formulation, concentration not given
Experimental: When a neotame salt was used as a taste modifying/sweetening ingredient, the neotame salt as added in an amount sufficient to provide about 15 ppm to about 25 ppm neotame (e.g., about 0.0028 g of a potassium neotame salt would be used to provide 100 ml of a 25 ppm neotame solution). The taste modifying ingredient was dissolved in the sweetened beverage and the beverage was allowed to stand overnight at room temperature prior to evaluation. Evaluations of the cola-flavored beverages were conducted using a beverage containing water, sodium benzoate (0.16%), phosphoric acid (0.22%), citric acid (0.05%), trisodium citrate (0.08%), caffeine (0.03%), Flavor 28 (1.72%), sweetened with neotame in an amount of about 0.0015% to about 0.0025% (15 ppm to 25 ppm), adjusted to pH 3.2 using sodium citrate.

[2] = Taste evaluation in neotame-sweetened reconstituted powdered soft drink
[3] = Taste evaluation of solid tabletop sweetener in whitened, brewed coffee beverage; conditions: for effectiveness as taste modifying ingredient: tabletop sweetener in a whitened coffee beverage, concentration not given
Experimental: The following examples 51-78 are directed to solid tabletop sweetener preparations, specifically sachet or packet preparations, comprising mixtures of neotame, one or more taste modifying ingredients and a bulking agent. Taste evaluations were conducted on sweetened coffee or tea beverages prepared by dissolving the solid tabletop sweetener (total weight of 1.00 g) in a cup of brewed coffee or tea. The concentration of the ingredients in the tabletop sweetener is expressed as a percentage by weight, whereas the concentration of the ingredients in the beverage is expressed as parts per million (ppm) or parts per trillion (ppt). The beverages were prepared such that the concentration of neotame in sweetened, whitened coffee beverage was approximately 3-5 ppm and the concentration of neotame in sweetened tea was approximately 5-7 ppm.

[4] = Taste evaluation in neotame-sweetened hot cocoa beverage
[5] = Taste evaluation in neotame-sweetened gelatin dessert; conditions: glycerin 8.4 ppm
[6] = on a weight basis; cited from earlier work
[7] = Taste evaluation in neotame-sweetened strawberry-flavored yogurt; conditions: serine 25 ppm

Compound: N[C@@H](Cc1ccc(O)cc1)C(=O)O [L-tyrosine]
- taste characteristic imparted by neotame ([1]; L-tyrosine 15 to 50 ppm): positively affected
- taste characteristic imparted by neotame ([2]; tyrosine 35 ppm, reconstituted punch-flavored powdered soft drink): positively affected
- taste characteristic imparted by neotame ([3]; L-tyrosine 0.288% by weight (beverage 12 ppm), neotame 3.75 ppm, Unidex): positively affected

Compound: COC1=C(C)OC(C)C1=O (centres unmarked) [Mesifuran]
- effectiveness as taste modifying ingredient [1]: not an effective taste modifying ingredient

Compound: CC1=CC(=O)[N-]S(=O)(=O)O1.[K+] [acesulfame-K]
- taste characteristic imparted by neotame ([1]; acesulfame-K 20 to 40 ppm, neotame 15-25 ppm): positively affected
- taste characteristic imparted by neotame ([2]; acesulfame-K 40 to 100 ppm, reconstituted punch or lemonade-flavored powdered soft drink): positively affected
- taste characteristic imparted by neotame ([4]; acesulfame-K 40 to 100 ppm): positively affected

Compound: CC1=CC(=O)NS(=O)(=O)O1.COC(=O)C(Cc1ccccc1)NC(=O)C(CC(=O)O)NCCC(C)(C)C (centres unmarked) [acesulfame-neotame salt]
- taste compared to neotame-sweetened cola-flavored beverage ([1]; acesulfame-neotame salt 40 ppm): improved taste

Compound: COC(=O)[C@H](Cc1ccccc1)NC(=O)[C@@H](N)CC(=O)O [aspartame] (H-Asp-Phe-OMe)
- taste characteristic imparted by neotame ([1]; aspartame 20 to 40 ppm): positively affected
- taste characteristic imparted by neotame ([2]; aspartame 100 to 160 ppm, reconstituted punch or lemonade-flavored powdered soft drink): positively affected
- taste characteristic imparted by neotame ([4]; aspartame 100 ppm): positively affected
- taste characteristic imparted by neotame ([3]; aspartame 0.6% to 1.25% by weight (beverage 25 to 52 ppm), neotame 3.75 ppm, Unidex bulking agent): positively affected

Compound: Cn1c(=O)c2c(ncn2C)n(C)c1=O [caffeine]
- taste characteristic imparted by neotame ([1]; caffeine 140 to 425 ppm): positively affected

Compound: [Ca+2].[Cl-].[Cl-] [calcium chloride]
- taste characteristic imparted by neotame ([3]; calcium chloride 0.072% by weight (beverage 3 ppm), neotame 3.75 ppm, Unidex): positively affected

Compound: COC(=O)[C@H](Cc1ccccc1)NC(=O)[C@H](CC(=O)[O-])NCCC(C)(C)C.COC(=O)[C@H](Cc1ccccc1)NC(=O)[C@H](CC(=O)[O-])NCCC(C)(C)C.[Ca+2] [calcium-neotame salt]
- taste compared to neotame-sweetened cola-flavored beverage ([1]; calcium-neotame salt as sweetener): improved taste
- taste characteristic imparted by neotame, compared to neotame-sweetened coffee beverage ([3]; calcium-neotame salt 0.056% by weight (beverage 2.33 ppm), Unidex): positively affected

Compound: OC[C@@H](O)[C@@H](O)CO [erythritol]
- taste characteristic imparted by neotame ([1]; erythritol 200 ppm to 10,000 ppm): positively affected

Compound: CCc1occc(=O)c1O [ethyl maltol]
- taste characteristic imparted by neotame ([3]; ethyl maltol 0.0482% by weight (beverage 2 ppm), neotame 3.75 ppm, Unidex): positively affected

Compound: OCC(O)CO [glycerol]
- taste characteristic imparted by neotame ([1]; glycerol 15 ppm to 2,000 ppm): positively affected
- taste characteristic imparted by neotame ([2]; glycerin 4 to 35 ppm, reconstituted punch-flavored powdered soft drink): positively affected
- taste characteristic imparted by neotame [5]: positively affected
- taste characteristic imparted by neotame ([3]; glycerol 0.04% to 0.2% by weight (beverage 1.7 to 8.3 ppm), neotame 3.3 ppm, Unidex): positively affected

Compound: Cc1occc(=O)c1O [maltol]
- taste characteristic imparted by neotame ([3]; maltol 0.035% by weight (beverage 1.44 ppm), neotame 3.75 ppm, Unidex): positively affected

Compound: OC[C@@H](O)[C@@H](O)[C@H](O)[C@H](O)CO [mannitol]
- taste characteristic imparted by neotame ([1]; mannitol 100 ppm to 2,000 ppm): positively affected

Compound: CC1(C)[C@@H](O[C@H]2O[C@H](C(=O)O)[C@@H](O)[C@H](O)[C@H]2O[C@@H]2O[C@H](C(=O)O)[C@@H](O)[C@H](O)[C@H]2O)CC[C@]2(C)[C@H]3C(=O)C=C4[C@@H]5C[C@@](C)(C(=O)O)CC[C@]5(C)CC[C@@]4(C)[C@]3(C)CC[C@@H]12.N [monoammonium glycyrrhizinate]
- taste characteristic imparted by neotame ([1]; monoammonium glycyrrhizinate 0.25 ppm): positively affected

Compound: C[C@@H]1O[C@@H](O[C@H]2[C@H](Oc3cc(O)c4c(c3)O[C@H](c3ccc(O)cc3)CC4=O)O[C@H](CO)[C@@H](O)[C@@H]2O)[C@H](O)[C@H](O)[C@H]1O [naringin]
- effectiveness as taste modifying ingredient [1]: ineffective

Compound: COc1ccc(CCC(=O)c2c(O)cc(O[C@@H]3O[C@H](CO)[C@@H](O)[C@H](O)[C@H]3O[C@@H]3O[C@@H](C)[C@H](O)[C@@H](O)[C@H]3O)cc2O)cc1O [neohesperidin dihydrochalcone]
- taste characteristic imparted by neotame ([1]; NHDC 3 ppm): positively affected
- taste characteristic imparted by neotame ([2]; neohesperidin dihydrochalcone 2 to 3 ppm, reconstituted punch or lemonade flavored powdered soft drinks): positively affected
- taste characteristic imparted by neotame ([4]; neohesperidin dihydrochalcone 2 to 3 ppm): positively affected
- taste characteristic imparted by neotame ([3]; neohesperidin dihydrochalcone 0.040% to 0.048% by weight (beverage 1.68 to 2.0 ppm), neotame 3.75 ppm, Unidex): positively affected

Compound: COC(=O)[C@H](Cc1ccccc1)NC(=O)[C@H](CC(=O)O)NCCC(C)(C)C [neotame, N-[N-(3,3-dimethylbutyl)-L-α-aspartyl]-L-phenylalanine 1-methyl ester]
- sweetness relative to sucrose [6]: approximately 8,000 times as sweet as sucrose

Compound: [Cl-].[K+] [potassium chloride]
- effectiveness as taste modifying ingredient [1]: ineffective

Compound: COC(=O)[C@H](Cc1ccccc1)NC(=O)[C@H](CC(=O)[O-])NCCC(C)(C)C.[K+] [potassium-neotame salt]
- taste compared to neotame-sweetened cola-flavored beverage ([1]; potassium-neotame salt as sweetener): improved taste
- taste characteristic imparted by neotame, compared to neotame-sweetened coffee beverage ([3]; potassium-neotame salt 0.11% by weight (beverage 4.58 ppm), Unidex): positively affected

Compound: C=C[C@H]1C[N@@]2CC[C@H]1C[C@H]2[C@H](O)c1ccnc2ccc(OC)cc12 [quinine sulfate]
- taste characteristic imparted by neotame ([1]; quinine sulfate 0.01 to 1 ppm): positively affected

Compound: O=C1NS(=O)(=O)c2ccccc21 [saccharin]
- taste characteristic imparted by neotame ([1]; saccharin 20 to 150 ppm): positively affected
- taste of beverage across tested concentrations ([1]; saccharin 100 ppm): best tasting beverage
- taste characteristic imparted by neotame ([2]; saccharin 20 to 40 ppm, reconstituted punch or lemonade-flavored powdered soft drink): positively affected
- taste characteristic imparted by neotame ([4]; saccharin 20 to 40 ppm): positively affected
- taste characteristic imparted by neotame ([3]; saccharin 1.32% by weight (beverage 5.5 ppm), neotame 3.75 ppm, Unidex): positively affected

Compound: N[C@@H](CO)C(=O)O [serine]
- taste characteristic imparted by neotame ([1]; serine 50 ppm): positively affected
- taste characteristic imparted by neotame ([2]; serine 5 ppm to 30 ppm, reconstituted strawberry-flavored powdered soft drink): positively affected
- taste characteristic imparted by neotame [7]: positively affected

Compound: [Cl-].[Na+] [sodium chloride]
- taste characteristic imparted by neotame ([1]; sodium chloride 5 to 50 ppm): positively affected
- taste of beverage across tested concentrations ([1]; sodium chloride 10 ppm): best tasting beverage

Compound: COC(=O)[C@H](Cc1ccccc1)NC(=O)[C@H](CC(=O)[O-])NCCC(C)(C)C.[Na+] [sodium-neotame salt]
- taste characteristic imparted by neotame, compared to neotame-sweetened coffee beverage ([3]; sodium-neotame salt 0.09% by weight (beverage 3.75 ppm), Unidex): positively affected

Compound: OC[C@@H](O)[C@@H](O)[C@H](O)[C@@H](O)CO [sorbitol]
- effectiveness as taste modifying ingredient [1]: ineffective

Compound: OC[C@H]1O[C@@](CO)(O[C@H]2O[C@H](CO)[C@@H](O)[C@H](O)[C@H]2O)[C@@H](O)[C@@H]1O [sucrose]
- taste characteristic imparted by neotame ([1]; sucrose 2000 ppm to 4000 ppm): positively affected

Compound: C[C@@H](O)[C@H](N)C(=O)O [threonine]
- taste characteristic imparted by neotame ([1]; threonine 5 ppm to 30 ppm): positively affected

Compound: COc1cc(C=O)ccc1O [vanillin]
- taste characteristic imparted by neotame ([2]; vanillin 0.5 ppm, reconstituted punch and lemonade-flavored soft drinks): positively affected

Compound: OC[C@@H](O)[C@H](O)[C@@H](O)CO [xylitol]
- effectiveness as taste modifying ingredient [1]: ineffective

Compound: Neotame-monopotassium phosphate
- effectiveness as taste modifying ingredient [1]: ineffective

Compound: beta cyclodextrin-neotame complex
- taste characteristic imparted by neotame ([3]; beta cyclodextrin-neotame complex 1.409% by weight (beverage 58.7 ppm, neotame 3.3 ppm), Unidex): positively affected

Compound: neotame-monocalcium phosphate
- effectiveness as taste modifying ingredient [1]: ineffective

Compound: neotame-phosphate salt
- taste compared to neotame-sweetened cola-flavored beverage ([1]; neotame-phosphate salt as sweetener): improved taste

Compound: polysorbate 60
- taste characteristic imparted by neotame ([1]; polysorbate 60 10 to 15 ppm): positively affected
- taste characteristic imparted by neotame ([3]; polysorbate 60 0.05% to 0.10% by weight (beverage 2.08 to 4.2 ppm), neotame 3.75 ppm, Unidex): positively affected
- effectiveness as taste modifying ingredient [3]: effective

Compound: polysorbate 65
- taste characteristic imparted by neotame ([1]; polysorbate 65 10 to 15 ppm): positively affected

Compound: polysorbate 80
- taste characteristic imparted by neotame ([1]; polysorbate 80 10 to 15 ppm): positively affected
- effectiveness as taste modifying ingredient [3]: effective

Compound: thaumatin
- taste characteristic imparted by neotame ([3]; thaumatin 0.12% by weight (beverage 5.0 ppm), neotame 3.75 ppm, Unidex): positively affected
